Values joined by “and” are separate entries in the source; they are usually repeats but may differ in a detail not shown here. Equal entries are not always repeated.
What was measured:
Format in all cases: cell-based
320 non-olfactory GPCRs [1] = target: T1, 320 non-olfactory GPCRs (Homo sapiens, UniProt Q96LB0); conditions: receptor MRGPRX3; replicate values, Fig_4g
T1 construct: expressed in transfected cells; host or cells: HTLA cells

320 non-olfactory GPCRs [2] = target: 320 non-olfactory GPCRs (Homo sapiens, UniProt P32239)
Sequence of 320 non-olfactory GPCRs (Homo sapiens, UniProt P32239) (P32239 whole entry): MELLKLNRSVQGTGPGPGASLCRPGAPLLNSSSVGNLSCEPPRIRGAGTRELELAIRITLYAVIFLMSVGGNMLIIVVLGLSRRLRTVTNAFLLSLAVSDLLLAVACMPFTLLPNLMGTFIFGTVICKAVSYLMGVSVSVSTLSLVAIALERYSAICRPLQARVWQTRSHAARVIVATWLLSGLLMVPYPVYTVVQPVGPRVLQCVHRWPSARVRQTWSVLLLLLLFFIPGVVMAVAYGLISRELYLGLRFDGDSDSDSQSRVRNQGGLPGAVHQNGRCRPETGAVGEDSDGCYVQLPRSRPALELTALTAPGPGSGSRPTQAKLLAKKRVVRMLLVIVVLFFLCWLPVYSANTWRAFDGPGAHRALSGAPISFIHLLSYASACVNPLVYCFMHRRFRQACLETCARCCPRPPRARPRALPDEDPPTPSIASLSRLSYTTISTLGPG

320 non-olfactory GPCRs [3] = target: T2, 320 non-olfactory GPCRs (Homo sapiens, UniProt Q01726); conditions: receptor MC1R; replicate values, Fig_4g
T2 construct: expressed in transfected cells; host or cells: HTLA cells
T2 sequence (Q01726 whole entry): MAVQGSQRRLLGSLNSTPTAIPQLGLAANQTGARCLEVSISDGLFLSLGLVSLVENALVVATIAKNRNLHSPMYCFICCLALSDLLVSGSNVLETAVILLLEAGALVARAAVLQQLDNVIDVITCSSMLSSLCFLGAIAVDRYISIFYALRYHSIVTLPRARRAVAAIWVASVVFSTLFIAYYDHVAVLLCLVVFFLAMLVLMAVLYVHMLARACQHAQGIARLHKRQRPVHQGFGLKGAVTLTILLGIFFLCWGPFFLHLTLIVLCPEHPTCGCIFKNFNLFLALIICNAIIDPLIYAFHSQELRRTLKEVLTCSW

320 non-olfactory GPCRs [4] = target: T3, 320 non-olfactory GPCRs (Homo sapiens, UniProt P35408); conditions: receptor PTGER4; replicate values, Fig_4g
T3 construct: expressed in transfected cells; host or cells: HTLA cells
T3 sequence (P35408 whole entry): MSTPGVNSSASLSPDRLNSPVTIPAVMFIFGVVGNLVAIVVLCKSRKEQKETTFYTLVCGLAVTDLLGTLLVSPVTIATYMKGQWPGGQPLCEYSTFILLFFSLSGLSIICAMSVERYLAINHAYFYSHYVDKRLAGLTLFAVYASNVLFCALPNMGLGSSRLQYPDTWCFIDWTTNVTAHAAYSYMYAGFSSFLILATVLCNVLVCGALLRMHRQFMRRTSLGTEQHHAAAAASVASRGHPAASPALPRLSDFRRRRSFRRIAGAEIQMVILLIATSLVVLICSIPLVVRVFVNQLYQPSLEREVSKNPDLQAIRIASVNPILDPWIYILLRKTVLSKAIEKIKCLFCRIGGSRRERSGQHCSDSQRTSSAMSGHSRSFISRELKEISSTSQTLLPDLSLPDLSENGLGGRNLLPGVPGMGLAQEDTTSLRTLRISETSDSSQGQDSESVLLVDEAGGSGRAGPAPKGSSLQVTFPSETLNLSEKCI
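For Fold of Basal in this document: compound tested at 1 µM final concentration.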
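For GPCRome agonism screen response in this document: fold over basal response of each receptor without drug.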

T1 sequence (Q96LB0 whole entry): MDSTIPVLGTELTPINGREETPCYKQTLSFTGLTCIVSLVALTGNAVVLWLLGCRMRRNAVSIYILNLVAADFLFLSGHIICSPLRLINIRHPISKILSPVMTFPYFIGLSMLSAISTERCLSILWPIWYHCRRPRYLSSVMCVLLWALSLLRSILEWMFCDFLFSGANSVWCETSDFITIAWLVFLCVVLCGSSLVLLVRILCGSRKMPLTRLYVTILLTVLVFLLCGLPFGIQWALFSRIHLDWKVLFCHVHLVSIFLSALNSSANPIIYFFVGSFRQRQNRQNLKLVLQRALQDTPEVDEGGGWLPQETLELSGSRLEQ

CCOc1cccc2cc(C(C)NCC3(O)CCCCC3)oc12 (stereo not shown) [O4LE6]
GPCRome agonism screen response (320 non-olfactory GPCRs [1]): 0.501 and 0.6269 and 0.3987 and 0.4556
Fold of Basal (320 non-olfactory GPCRs [2]): 1.067 and 0.8402 and 0.8391 and 1.015
GPCRome agonism screen response (320 non-olfactory GPCRs [3]): 1.144 and 0.3717 and 0.6675 and 1.8673
GPCRome agonism screen response (320 non-olfactory GPCRs [4]): 2.508 and 1.456 and 1.732 and 0.428

— paper PMC7044277 (Nature Communications, 2020)
